Activity calls are given as the source filed them. How the calls were made is not given here.

From PubChem BioAssay AID1259407 (Chemical Carcinogenesis Research Information System (CCRIS), 2018) come the findings set out here.

For this data set, the system named is CCRIS mutagenicity, Ames/micronucleus/aberration tests. The data set is described as follows: CCRIS mutagenicity studies.
The mark [1] stands for this setting: Test System: AMES SALMONELLA TYPHIMURIUM, Strain/Indicator: TA100, Metabolic Activation: NONE, Method: STANDARD PLATE.

For the compound `O[C@H]1C=Cc2c(cc3ccc4cccc5ccc2c3c45)[C@@H]1O`, the mutagenic call was “active; positive” (Test System: AMES SALMONELLA TYPHIMURIUM, Strain/Indicator: TA97, Metabolic Activation: RAT, LIVER, S-9, AROCLOR 1254, Method: STANDARD PLATE); “active; positive” (Test System: AMES SALMONELLA TYPHIMURIUM, Strain/Indicator: TA98, Metabolic Activation: NONE, Method: HOST-MEDIATED); “active; positive” (Test System: AMES SALMONELLA TYPHIMURIUM, Strain/Indicator: TA98, Metabolic Activation: RAT, LIVER, 3-METHYLCHOLANTHRENE, Method: LIQUID SUSPENSION); “active; positive” (Test System: AMES SALMONELLA TYPHIMURIUM, Strain/Indicator: TA98, Metabolic Activation: RAT, LIVER, S-9, AROCLOR 1254, Method: STANDARD PLATE); “active; positive” (Test System: AMES SALMONELLA TYPHIMURIUM, Strain/Indicator: TA98, Metabolic Activation: RAT, LIVER, S-9, Method: STANDARD PLATE); “active; positive” (Test System: AMES SALMONELLA TYPHIMURIUM, Strain/Indicator: TA100, Metabolic Activation: EPITHELIAL CELL-MEDIATED, AROCLOR 1254, Method: PREINCUBATION). Also, the mutagenic call is “active; positive” (Test System: AMES SALMONELLA TYPHIMURIUM, Strain/Indicator: TA100, Metabolic Activation: EPITHELIAL CELL-MEDIATED, NADPH, Method: PREINCUBATION); “active; positive” (Test System: AMES SALMONELLA TYPHIMURIUM, Strain/Indicator: TA100, Metabolic Activation: EPITHELIAL CELL-MEDIATED, Method: PREINCUBATION); “active; positive” (Test System: AMES SALMONELLA TYPHIMURIUM, Strain/Indicator: TA100, Metabolic Activation: KUPFFER CELL-MEDIATED, AROCLOR 1254, Method: PREINCUBATION); “active; positive” (Test System: AMES SALMONELLA TYPHIMURIUM, Strain/Indicator: TA100, Metabolic Activation: KUPFFER CELL-MEDIATED, NADPH, Method: PREINCUBATION); “active; positive” (Test System: AMES SALMONELLA TYPHIMURIUM, Strain/Indicator: TA100, Metabolic Activation: KUPFFER CELL-MEDIATED, Method: PREINCUBATION); “active; positive” (Test System: AMES SALMONELLA TYPHIMURIUM, Strain/Indicator: TA100, Metabolic Activation: NONE, Method: HOST-MEDIATED). Besides, the mutagenic call is “active; positive” (Test System: AMES SALMONELLA TYPHIMURIUM, Strain/Indicator: TA100, Metabolic Activation: PARENCHYMAL CELL-MEDIATED, AROCLOR 1254, Method: PREINCUBATION); “active; positive” (Test System: AMES SALMONELLA TYPHIMURIUM, Strain/Indicator: TA100, Metabolic Activation: PARENCHYMAL CELL-MEDIATED, NADPH, Method: PREINCUBATION); “active; positive” (Test System: AMES SALMONELLA TYPHIMURIUM, Strain/Indicator: TA100, Metabolic Activation: PARENCHYMAL CELL-MEDIATED, Method: PREINCUBATION); “active; positive” (Test System: AMES SALMONELLA TYPHIMURIUM, Strain/Indicator: TA100, Metabolic Activation: RAT, LIVER, S-9, AROCLOR 1254, Method: STANDARD PLATE); “active; positive” (Test System: AMES SALMONELLA TYPHIMURIUM, Strain/Indicator: TA100, Metabolic Activation: RAT, LIVER, S-9, Method: STANDARD PLATE); “inactive; negative” (Test System: AMES SALMONELLA TYPHIMURIUM, Strain/Indicator: TA1537, Metabolic Activation: RAT, LIVER, S-9 AROCLOR 1254, Method: STANDARD PLATE). Moreover, the mutagenic call is “inactive; negative” (Test System: AMES SALMONELLA TYPHIMURIUM, Strain/Indicator: TA1538, Metabolic Activation: NONE, Method: HOST-MEDIATED); “active; positive” (Test System: AMES SALMONELLA TYPHIMURIUM, Strain/Indicator: TA1538, Metabolic Activation: RAT, LIVER, S-9, Method: STANDARD PLATE); “active; positive” (Test System: CHINESE HAMSTER V-79, Strain/Indicator: V-79/6-THIOGUANINE, Metabolic Activation: RAT, LIVER, S-9, AROCLOR 1254); “active; positive” (Test System: CHINESE HAMSTER V-79, Strain/Indicator: V-79/8-AZAGUANINE, Metabolic Activation: CELL-MEDIATED, Method: STANDARD PLATE); “active; positive” (Test System: CHINESE HAMSTER V-79, Strain/Indicator: V-79/8-AZAGUANINE, Metabolic Activation: NONE, Method: STANDARD PLATE); “active; positive” (Test System: CHINESE HAMSTER V-79, Strain/Indicator: V-79/OUABAIN, Metabolic Activation: CELL-MEDIATED, Method: STANDARD PLATE). For the same compound, the mutagenic call (Test System: CHINESE HAMSTER V-79, Strain/Indicator: V-79/OUABAIN, Metabolic Activation: HAMSTER, EMBRYO, CELL-MEDIATED, Method: STANDARD PLATE) is “active; positive”.
For `O=c1[nH]c(=O)n([C@H]2C[C@H](O)[C@@H](CO)O2)cc1COO`, the mutagenic call by setting is: under setting [1], “active; positive”; (Test System: AMES SALMONELLA TYPHIMURIUM, Strain/Indicator: TA102, Metabolic Activation: NONE, Method: STANDARD PLATE) “active; positive”.
Consider `CCCC(=O)O[C@H]1[C@H](C)O[C@@H](O[C@H]2[C@H](N(C)C)[C@@H](O)[C@H](O[C@H]3[C@@H](CC=O)C[C@@H](C)[C@@H](O)/C=C/C=C/C[C@@H](C)OC(=O)C[C@@H](O)[C@@H]3OC)O[C@@H]2C)C[C@@]1(C)OC(=O)CC`, for which the mutagenic call is, setting by setting: (Test System: AMES SALMONELLA TYPHIMURIUM, Strain/Indicator: TA98, Metabolic Activation: NONE, Method: PREINCUBATION) “inactive; negative”; (Test System: AMES SALMONELLA TYPHIMURIUM, Strain/Indicator: TA98, Metabolic Activation: RAT, LIVER, S-9, AROCLOR 1254, Method: PREINCUBATION) “inactive; negative”; (Test System: AMES SALMONELLA TYPHIMURIUM, Strain/Indicator: TA100, Metabolic Activation: NONE, Method: PREINCUBATION) “inactive; negative”; (Test System: AMES SALMONELLA TYPHIMURIUM, Strain/Indicator: TA100, Metabolic Activation: RAT, LIVER, S-9, AROCLOR 1254, Method: PREINCUBATION) “inactive; negative”; (Test System: AMES SALMONELLA TYPHIMURIUM, Strain/Indicator: TA1535, Metabolic Activation: NONE, Method: PREINCUBATION) “inactive; negative”; (Test System: AMES SALMONELLA TYPHIMURIUM, Strain/Indicator: TA1535, Metabolic Activation: RAT, LIVER, S-9, AROCLOR 1254, Method: PREINCUBATION) “inactive; negative”. The mutagenic call reads like this: (Test System: AMES SALMONELLA TYPHIMURIUM, Strain/Indicator: TA1537, Metabolic Activation: NONE, Method: PREINCUBATION) “inactive; negative”; (Test System: AMES SALMONELLA TYPHIMURIUM, Strain/Indicator: TA1537, Metabolic Activation: RAT, LIVER, S-9, AROCLOR 1254, Method: PREINCUBATION) “inactive; negative”; (Test System: AMES SALMONELLA TYPHIMURIUM, Strain/Indicator: TA1538, Metabolic Activation: NONE, Method: PREINCUBATION) “inactive; negative”; (Test System: AMES SALMONELLA TYPHIMURIUM, Strain/Indicator: TA1538, Metabolic Activation: RAT, LIVER, S-9, AROCLOR 1254, Method: PREINCUBATION) “inactive; negative”; (Test System: E. COLI, Strain/Indicator: WP2 UVRA, Metabolic Activation: NONE, Method: PREINCUBATION) “inactive; negative”; (Test System: E. COLI, Strain/Indicator: WP2 UVRA, Metabolic Activation: RAT, LIVER, S-9, AROCLOR 1254, Method: PREINCUBATION) “inactive; negative”.
In the case of `CCN(CC)CC#CC(C)(C)OC(=O)C(O)(c1ccccc1)C1CCCCC1` (centres undefined), the mutagenic call reads like this: (Test System: AMES SALMONELLA TYPHIMURIUM, Strain/Indicator: TA98, Metabolic Activation: NONE, Method: STANDARD PLATE) “inactive; negative”; (Test System: AMES SALMONELLA TYPHIMURIUM, Strain/Indicator: TA98, Metabolic Activation: RAT, LIVER, S-9, PHENOBARBITAL AND 5,6-BENZOFLAVONE, Method: STANDARD PLATE) “inactive; negative”; under setting [1], “inactive; negative”; (Test System: AMES SALMONELLA TYPHIMURIUM, Strain/Indicator: TA100, Metabolic Activation: RAT, LIVER, S-9, PHENOBARBITAL AND 5,6-BENZOFLAVONE, Method: STANDARD PLATE) “inactive; negative”; (Test System: AMES SALMONELLA TYPHIMURIUM, Strain/Indicator: TA1535, Metabolic Activation: NONE, Method: STANDARD PLATE) “inactive; negative”; (Test System: AMES SALMONELLA TYPHIMURIUM, Strain/Indicator: TA1535, Metabolic Activation: RAT, LIVER, S-9, PHENOBARBITAL AND 5,6-BENZOFLAVONE, Method: STANDARD PLATE) “inactive; negative”. The mutagenic call by setting is: (Test System: AMES SALMONELLA TYPHIMURIUM, Strain/Indicator: TA1537, Metabolic Activation: NONE, Method: STANDARD PLATE) “inactive; negative”; (Test System: AMES SALMONELLA TYPHIMURIUM, Strain/Indicator: TA1537, Metabolic Activation: RAT, LIVER, S-9, PHENOBARBITAL AND 5,6-BENZOFLAVONE, Method: STANDARD PLATE) “inactive; negative”; (Test System: E. COLI, Strain/Indicator: WP2 UVRA, Metabolic Activation: NONE, Method: STANDARD PLATE) “inactive; negative”; (Test System: E. COLI, Strain/Indicator: WP2 UVRA, Metabolic Activation: RAT, LIVER, S-9, PHENOBARBITAL AND 5,6-BENZOFLAVONE, Method: STANDARD PLATE) “inactive; negative”.
